Experimental data reported in US20170312253A1 (The Third Affiliated Hospital, Third Military Medical …, priority 2014, published 2017).

How the values were obtained:
Type in all cases: in vivo
[1] = tested on: Aβ deposition in the blood vessels of the brain; assay: Cerebrovascular amyloidosis detection (double immunofluorescence 1a4/6E10); conditions: AD mice
Method: (§1) APPswe/PS1DE9 (AD) transgenic mice were purchased from Jackson Laboratory, USA (No. 005864), raised in the SPF grade animal house of The Third Affiliated Hospital of The Third Military Medical University. All the processes and correlated experiments applied to the mice were approved and filed with the Animal Ethics Committee of the Third Military Medical University. […] Alternatively, the daily dose for the prophylactic group may be 6.4 mg/kg, and the daily dose for the treatment group may be 12.8 mg/kg. Administration from 3-month old to 9-month old is the prophylactic test, and administration from 9-month old to 12-month old is the therapeutic test After reaching a stated time, the mice in each group received behavioral tests according to the method in the follows. Three mice in each group were taken for Golgi staining. The remaining mice were overly anaesthetized to receive brain anatomy. One side of the cerebral hemisphere was frozen and then for a biochemical analysis, and the other side of the cerebral hemisphere was fixed with 4% paraform for a histological analysis.
A new assessment method was applied in the present research to assess the severity of the cerebrovascular amyloidosis. The blood vessels in the brain were double immunofluorescence stained with α-smooth muscle action antibody (1a4) and Aβ antibody (6E10), observed under eonfocal laser microscopy (Radiance 2000MP, Bio-Rad), and the images of the blood vessels were recorded. The severity of the CAA of each blood vessel was scored based on the following four-level scale: level 0: no Aβ deposition; level 1: little Aβ deposition, Aβ deposition occupies less than one third of the perimeter of the blood vessel; level 2: moderate Aβ deposition, Aβ deposition occupies more than one third but less than two thirds of the perimeter of the blood vessel; level 3: severe deposition, Aβ deposition occupies more than […] of the perimeter of the blood vessel.

Aβ, CTFβ = assay: Western blot of Aβ and CTFβ in brain; conditions: AD mice
Method: APPswe/PS1DE9 (AD) transgenic mice were purchased from Jackson Laboratory, USA (No. 005864), raised in the SPF grade animal house of The Third Affiliated Hospital of The Third Military Medical University. All the processes and correlated experiments applied to the mice were approved and filed with the Animal Ethics Committee of the Third Military Medical University. […] Alternatively, the daily dose for the prophylactic group may be 6.4 mg/kg, and the daily dose for the treatment group may be 12.8 mg/kg. […]
The enzymes related with Aβ formation and degradation their molecule levels, the levels of hyperphosphprylated Tau proteins, and the levels of synaptic plasticity correlated proteins were all detected with Western blot. […] The blotting was detected with the following antibodies: APP C terminal antibody (171610, Millipore), BACE1 antibody (Millipore), Aβ antibody (6E10, Abcam), Nepriiysin antibody (Millipore), RAGE antibody (Millipore), LRP antibody (5A6, Calbiochem), IDE antibody (epitomics), phosphorylated Tau protein antibody, including pS396 (Signalway), pT231 (Signalway), pS199 (epitomics), pS262 (Abcam), SNAP25 antibody (Millipore), Synaptophysin antibody (Millipore), Synapsin I antibody (Millipore), VAMP1 antibody (Millipore), PSD95 antibody (Millipore), F-actin antibody (Actin) (Sigma-Aldrich). […]

Aβ 40, Aβ 42 = assay: ELISA of Aβ 40, Aβ 42 in brain extracts (TBS, SDS, FA); conditions: AD mice, 2% SDS and FA extracts
Method: as §1
After homogenating the frozen brain tissues, extraction was conducted with TBS, SDS and formic acid successively. The TBS, SDS and formic acid extracts represent soluble Aβ, loosen senile plaques and compact senile plaques, respectively. […]

[2] = tested on: Aβ deposition in the brain; assay: Quantitative analysis of Aβ deposition in the brain (Congo red, 6E10); conditions: AD mice, Congo red staining and 6E10 immunostaining
Method: as §1
The compact Aβ plaque was stained and labelled with Congo red. […] The Aβ plaques in the neopallium and hippocampal area were quantitatively analyzed with ImageJ analysis software to obtain the area percentage of the Aβ plaque and the quantities in a unit area.

microglia = assay: Microglia reaction immunostaining (CD45); conditions: AD mice
Method: as §1
Immunohistochemistry in the method of bleach section was carried out according to the previous steps. The primary antibodies were rabbit-anti-mouse CD45 antibody (for labelling microglias), rabbit-anti-mouse GFAP (for labelling astrocytes) and rabbit-anti-mouse pSer396-Tau antibody, respectively. […]

[3] = tested on: APPswe/PS1DE9 (AD) transgenic mice; assay: Open field test; conditions: AD mice vs control group
Method: APPswe/PS1DE9 (AD) transgenic mice were purchased from Jackson Laboratory, USA (No. 005864), raised in the SPF grade animal house of The Third Affiliated Hospital of The Third Military Medical University. All the processes and correlated experiments applied to the mice were approved and filed with the Animal Ethics Committee of the Third Military Medical University. […] Alternatively, the daily dose for the prophylactic group may be 6.4 mg/kg, and the daily dose for the treatment group may be 12.8 mg/kg. Administration from 3-month old to 9-month old is the prophylactic test, and administration from 9-month old to 12-month old is the therapeutic test After reaching a stated time, the mice in each group received behavioral tests according to the method in the follows. Three mice in each group were taken for Golgi staining. […] The entire process was recorded by video, and analyzed with an image analysis software (ANY-maze, Stoelting). In the platform test, the escape path length and escape latency were measured and calculated. In the probe test, the time in each quadrant and the time across platform were measured. […] In the open field test, the mouse was put in the center of an open field for 3 min, and its path was recorded by a tracking system (Limelight, ActiMetrics). At the same time, the numbers of rearing, grooming, defecation and urination of the mouse were recorded.

Q: Which results are given for `CC1=NN(c2ccccc2)C(=O)C1` [Edaravone, 3-methyl-1-phenyl-2-pyrazolin-5-one]?
A: proportions of the blood vessels at level 0 and level 1 CAA [1]: significantly increased; proportions of the blood vessels at level 2 and level 3 CAA [1]: significantly reduced; Aβ deposition in the blood vessels of the brain ([1]; Edaravone treatment group): significantly reduced; formation of Aβ in the brain (Western blot) (Aβ, CTFβ): reduce the formation of Aβ in the brain; formation of CTFβ (Western blot) (Aβ, CTFβ): decrease the formation of CTFβ; Aβ 40, Aβ 42 levels in brain extracts (Aβ 40, Aβ 42): significantly reduce the levels of Aβ at different, aggregation states; Aβ deposition in the brain, of the control group [2]: about 50%; microglia reaction level in the brain (microglia; p.o.): significantly reduced, too; microglia reaction in the brain (microglia; prophylactic and therapeutic test): all reduced significantly; open field probe distance [3]: significantly higher than in the control group; open field rearings [3]: significantly higher than in the control group
